What is called IC50 is the midpoint of a concentration-inhibition curve.

Structures are written as SMILES. Bounds are passed on as bounds.

Chain of IL-7Rα (P16871 21-236): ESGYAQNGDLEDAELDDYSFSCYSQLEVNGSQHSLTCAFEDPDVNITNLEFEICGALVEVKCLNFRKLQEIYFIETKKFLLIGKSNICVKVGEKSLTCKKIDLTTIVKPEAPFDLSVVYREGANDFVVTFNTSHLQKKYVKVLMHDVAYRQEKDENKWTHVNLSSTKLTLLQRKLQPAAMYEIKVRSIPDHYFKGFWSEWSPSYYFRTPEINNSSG

The target in the first experiment is T1, Rγc subunit (Homo sapiens, UniProt P31785).
T1 construct: purchased ACRObiosystems, Inc. ILG-H5256
T1 sequence (P31785 23-254): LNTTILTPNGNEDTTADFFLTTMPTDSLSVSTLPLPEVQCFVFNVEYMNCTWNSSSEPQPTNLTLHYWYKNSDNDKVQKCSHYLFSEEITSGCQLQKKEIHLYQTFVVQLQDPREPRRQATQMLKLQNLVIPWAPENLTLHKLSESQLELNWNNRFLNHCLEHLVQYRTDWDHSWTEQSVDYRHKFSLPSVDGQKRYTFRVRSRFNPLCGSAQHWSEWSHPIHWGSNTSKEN
Kind of experiment: Alanine scan competition binding assay, binding to Rγc subunit. To be noted: alanine scan peptides.
For `CC(C)C[C@@H]1NC(=O)[C@H](C)NC(=O)[C@H](C(C)C)NC(=O)CNC(=O)[C@H](CCC(=O)O)NC(=O)[C@H](Cc2c[nH]c3ccccc23)NC(=O)[C@H](CC(=O)O)NC(=O)[C@H](CCC(N)=O)NC(=O)[C@@H](NC(=O)[C@@H](NC(=O)[C@@H](NC(=O)CNC(=O)CN)C(C)C)C(C)C)CSSC[C@@H](C(=O)N[C@@H](Cc2c[nH]c3ccccc23)C(=O)N[C@@H](CCC(N)=O)C(=O)NCC(=O)NCC(=O)O)NC1=O` [SEQ ID NO: 1038, G G V V C Q D W E G V A L C W Q G G], the half-maximal inhibitory concentration (IC50) was less than 50 nM. On the same count and under the same terms, the same measure for `CC(C)C[C@@H]1NC(=O)[C@H](CCC(=O)O)NC(=O)[C@H](C(C)C)NC(=O)CNC(=O)[C@H](CCC(=O)O)NC(=O)[C@H](Cc2c[nH]c3ccccc23)NC(=O)[C@H](CC(=O)O)NC(=O)[C@H](C)NC(=O)[C@@H](NC(=O)[C@@H](NC(=O)[C@@H](NC(=O)CNC(=O)CN)C(C)C)C(C)C)CSSC[C@@H](C(=O)N[C@@H](Cc2c[nH]c3ccccc23)C(=O)N[C@@H](CCC(N)=O)C(=O)NCC(=O)NCC(=O)O)NC1=O` [SEQ ID NO: 1032, G G V V C A D W E G V E L C W Q G G]: less than 100 nM. The compound `CC(C)C[C@@H]1NC(=O)[C@H](CCC(=O)O)NC(=O)[C@H](C(C)C)NC(=O)[C@H](C)NC(=O)[C@H](CCC(=O)O)NC(=O)[C@H](Cc2c[nH]c3ccccc23)NC(=O)[C@H](CC(=O)O)NC(=O)[C@H](CCC(N)=O)NC(=O)[C@@H](NC(=O)[C@@H](NC(=O)[C@@H](NC(=O)CNC(=O)CN)C(C)C)C(C)C)CSSC[C@@H](C(=O)N[C@@H](Cc2c[nH]c3ccccc23)C(=O)N[C@@H](CCC(N)=O)C(=O)NCC(=O)NCC(=O)O)NC1=O` [SEQ ID NO: 1036, G G V V C Q D W E A V E L C W Q G G] showed an IC50 of less than 100 nM. The same measure, in the same setting: then `CC(C)C[C@@H]1NC(=O)[C@H](CCC(=O)O)NC(=O)[C@H](C(C)C)NC(=O)CNC(=O)[C@H](CCC(=O)O)NC(=O)[C@H](Cc2c[nH]c3ccccc23)NC(=O)[C@H](CC(=O)O)NC(=O)[C@H](CCC(N)=O)NC(=O)[C@@H](NC(=O)[C@@H](NC(=O)[C@@H](NC(=O)CNC(=O)CN)C(C)C)C(C)C)CSSC[C@@H](C(=O)N[C@@H](Cc2c[nH]c3ccccc23)C(=O)N[C@@H](CCC(N)=O)C(=O)NCC(=O)NCC(=O)O)NC1=O` [SEQ ID NO: 1031, G G V V C Q D W E G V E L C W Q G G], with less than 50 nM; and `CC(C)[C@@H]1NC(=O)CNC(=O)[C@H](CCC(=O)O)NC(=O)[C@H](Cc2c[nH]c3ccccc23)NC(=O)[C@H](CC(=O)O)NC(=O)[C@H](CCC(N)=O)NC(=O)[C@@H](NC(=O)[C@@H](NC(=O)[C@@H](NC(=O)CNC(=O)CN)C(C)C)C(C)C)CSSC[C@@H](C(=O)N[C@@H](Cc2c[nH]c3ccccc23)C(=O)N[C@@H](CCC(N)=O)C(=O)NCC(=O)NCC(=O)O)NC(=O)[C@H](C)NC(=O)[C@H](CCC(=O)O)NC1=O` [SEQ ID NO: 1039, G G V V C Q D W E G V E A C W Q G G], with less than 5000 nM. The same measure, in the same setting: the same measure for `CC(C)C[C@@H]1NC(=O)[C@H](CCC(=O)O)NC(=O)[C@H](C(C)C)NC(=O)CNC(=O)[C@H](CCC(=O)O)NC(=O)[C@H](Cc2c[nH]c3ccccc23)NC(=O)[C@H](C)NC(=O)[C@H](CCC(N)=O)NC(=O)[C@@H](NC(=O)[C@@H](NC(=O)[C@@H](NC(=O)CNC(=O)CN)C(C)C)C(C)C)CSSC[C@@H](C(=O)N[C@@H](Cc2c[nH]c3ccccc23)C(=O)N[C@@H](CCC(N)=O)C(=O)NCC(=O)NCC(=O)O)NC1=O` [SEQ ID NO: 1033, G G V V C Q A W E G V E L C W Q G G]: less than 50 nM; for `CC(C)C[C@@H]1NC(=O)[C@H](CCC(=O)O)NC(=O)[C@H](C)NC(=O)CNC(=O)[C@H](CCC(=O)O)NC(=O)[C@H](Cc2c[nH]c3ccccc23)NC(=O)[C@H](CC(=O)O)NC(=O)[C@H](CCC(N)=O)NC(=O)[C@@H](NC(=O)[C@@H](NC(=O)[C@@H](NC(=O)CNC(=O)CN)C(C)C)C(C)C)CSSC[C@@H](C(=O)N[C@@H](Cc2c[nH]c3ccccc23)C(=O)N[C@@H](CCC(N)=O)C(=O)NCC(=O)NCC(=O)O)NC1=O` [SEQ ID NO: 1037, G G V V C Q D W E G A E L C W Q G G]: less than 2000 nM; for `CC(C)C[C@@H]1NC(=O)[C@H](CCC(=O)O)NC(=O)[C@H](C(C)C)NC(=O)CNC(=O)[C@H](C)NC(=O)[C@H](Cc2c[nH]c3ccccc23)NC(=O)[C@H](CC(=O)O)NC(=O)[C@H](CCC(N)=O)NC(=O)[C@@H](NC(=O)[C@@H](NC(=O)[C@@H](NC(=O)CNC(=O)CN)C(C)C)C(C)C)CSSC[C@@H](C(=O)N[C@@H](Cc2c[nH]c3ccccc23)C(=O)N[C@@H](CCC(N)=O)C(=O)NCC(=O)NCC(=O)O)NC1=O` [SEQ ID NO: 1035, G G V V C Q D W A G V E L C W Q G G]: less than 50 nM. Take `CC(C)C[C@@H]1NC(=O)[C@H](CCC(=O)O)NC(=O)[C@H](C(C)C)NC(=O)CNC(=O)[C@H](CCC(=O)O)NC(=O)[C@H](C)NC(=O)[C@H](CC(=O)O)NC(=O)[C@H](CCC(N)=O)NC(=O)[C@@H](NC(=O)[C@@H](NC(=O)[C@@H](NC(=O)CNC(=O)CN)C(C)C)C(C)C)CSSC[C@@H](C(=O)N[C@@H](Cc2c[nH]c3ccccc23)C(=O)N[C@@H](CCC(N)=O)C(=O)NCC(=O)NCC(=O)O)NC1=O` [SEQ ID NO: 1034, G G V V C Q D A E G V E L C W Q G G]: the 50% inhibitory concentration (IC50) was less than 2000 nM.

The next experiment addresses IL-7Rα (Homo sapiens, UniProt P16871). As to the kind of experiment: Competition binding ELISA with bn407::NA-HRP precomplex. To be noted: bn407:NA-HRP 10 nM final; read-out: Competitive Binding ELISA bn407:NA-HRP (10 nMf) IC50 M. A general note: In an ELISA, binding on a coated surface is turned into a signal by an enzyme label.
Take `CC[C@H](C)[C@H](N)C(=O)N1CCC[C@H]1C(=O)N[C@@H](Cc1c[nH]c2ccccc12)C(=O)N[C@H]1CSSC[C@@H](C(=O)N[C@@H](C)C(=O)N[C@@H](Cc2c[nH]c3ccccc23)C(=O)N[C@H](C(=O)N[C@@H](CCCNC(=N)N)C(=O)N[C@@H](CCC(N)=O)C(=O)N[C@@H](CCSC)C(=O)NCC(=O)NCC(=O)O)[C@@H](C)CC)NC(=O)[C@H](CCC(N)=O)NC(=O)[C@H](CC(C)C)NC(=O)CNC(=O)CNC(=O)[C@@H]2CCCN2C(=O)[C@H](CC(=O)O)NC(=O)[C@H](CC(C)C)NC(=O)[C@H]([C@@H](C)O)NC1=O` [SEQ ID NO: 426, I P W C T L D P G G L Q C A W I R Q M]: the half-inhibitory concentration (IC50) turned out to be 378 nM.

On to `CC[C@H](C)[C@H](N)C(=O)N1CCC[C@H]1C(=O)N[C@@H](Cc1c[nH]c2ccccc12)C(=O)N[C@H]1CSSC[C@@H](C(=O)N[C@@H](C)C(=O)N[C@@H](Cc2c[nH]c3ccccc23)C(=O)N[C@@H](CC(C)C)C(=O)N[C@@H](CCCNC(=N)N)C(=O)N[C@@H](CCC(N)=O)C(=O)N[C@@H](CCSC)C(=O)NCC(=O)NCC(=O)O)NC(=O)[C@H](CCC(N)=O)NC(=O)[C@H](CC(C)C)NC(=O)CNC(=O)CNC(=O)[C@@H]2CCCN2C(=O)[C@H](CC(=O)O)NC(=O)[C@H](CC(C)C)NC(=O)[C@H]([C@@H](C)O)NC1=O` [SEQ ID NO: 420, I P W C T L D P G G L Q C A W L R Q M], for which the IC50 came out at 705 nM. Turning to `CC[C@H](C)[C@H](N)C(=O)N1CCC[C@H]1C(=O)N[C@@H](Cc1c[nH]c2ccccc12)C(=O)N[C@H]1CSSC[C@@H](C(=O)N[C@@H](C)C(=O)N[C@@H](Cc2c[nH]c3ccccc23)C(=O)N[C@@H](CC(C)C)C(=O)N[C@@H](CCCNC(=N)N)C(=O)N[C@@H](C)C(=O)N[C@@H](CCSC)C(=O)NCC(=O)NCC(=O)O)NC(=O)[C@H](CCC(N)=O)NC(=O)[C@H](CC(C)C)NC(=O)CNC(=O)CNC(=O)[C@@H]2CCCN2C(=O)[C@H](CC(=O)O)NC(=O)[C@H](CC(C)C)NC(=O)[C@H]([C@@H](C)O)NC1=O` [SEQ ID NO: 431, I P W C T L D P G G L Q C A W L R A M], the IC50 was determined as 521 nM. Take `CC[C@H](C)[C@H](N)C(=O)N1CCC[C@H]1C(=O)N[C@@H](Cc1c[nH]c2ccccc12)C(=O)N[C@H]1CSSC[C@@H](C(=O)N[C@@H](C)C(=O)N[C@@H](Cc2c[nH]c3ccccc23)C(=O)N[C@@H](CC(C)C)C(=O)N[C@@H](CCCNC(=N)N)C(=O)N[C@@H](C)C(=O)N[C@@H](C)C(=O)NCC(=O)NCC(=O)O)NC(=O)[C@H](CCC(N)=O)NC(=O)[C@H](CC(C)C)NC(=O)CNC(=O)CNC(=O)[C@@H]2CCCN2C(=O)[C@H](CC(=O)O)NC(=O)[C@H](CC(C)C)NC(=O)[C@H]([C@@H](C)O)NC1=O` [SEQ ID NO: 433, I P W C T L D P G G L Q C A W L R A A]: the half-maximal inhibitory concentration (IC50) is 1070 nM. Same read-out and setting: then `CC[C@H](C)[C@H](N)C(=O)N1CCC[C@H]1C(=O)N[C@@H](Cc1c[nH]c2ccccc12)C(=O)N[C@H]1CSSC[C@@H](C(=O)N[C@@H](C)C(=O)N[C@@H](Cc2c[nH]c3ccccc23)C(=O)N[C@@H](CC(C)C)C(=O)N[C@@H](C)C(=O)N[C@@H](CCC(N)=O)C(=O)N[C@@H](CCSC)C(=O)NCC(=O)NCC(=O)O)NC(=O)[C@H](CCC(N)=O)NC(=O)[C@H](CC(C)C)NC(=O)CNC(=O)CNC(=O)[C@@H]2CCCN2C(=O)[C@H](CC(=O)O)NC(=O)[C@H](CC(C)C)NC(=O)[C@H]([C@@H](C)O)NC1=O` [SEQ ID NO: 428, I P W C T L D P G G L Q C A W L A Q M], with 490 nM. For `CC[C@H](C)[C@H](N)C(=O)N1CCC[C@H]1C(=O)N[C@@H](Cc1c[nH]c2ccccc12)C(=O)N[C@H]1CSSC[C@@H](C(=O)N[C@@H](C)C(=O)N[C@@H](Cc2c[nH]c3ccccc23)C(=O)N[C@@H](CC(C)C)C(=O)N[C@@H](CCCCN)C(=O)N[C@@H](CCC(N)=O)C(=O)N[C@@H](CCSC)C(=O)NCC(=O)NCC(=O)O)NC(=O)[C@H](CCC(N)=O)NC(=O)[C@H](CC(C)C)NC(=O)CNC(=O)CNC(=O)[C@@H]2CCCN2C(=O)[C@H](CC(=O)O)NC(=O)[C@H](CC(C)C)NC(=O)[C@H]([C@@H](C)O)NC1=O` [SEQ ID NO: 429, I P W C T L D P G G L Q C A W L K Q M], the 50% inhibitory concentration (IC50) was 466 nM.

Turning to `CC[C@H](C)[C@H](N)C(=O)N1CCC[C@H]1C(=O)N[C@@H](Cc1c[nH]c2ccccc12)C(=O)N[C@H]1CSSC[C@@H](C(=O)N[C@@H](C)C(=O)N[C@@H](Cc2c[nH]c3ccccc23)C(=O)N[C@@H](CC(C)C)C(=O)N[C@@H](Cc2c[nH]cn2)C(=O)N[C@@H](CCC(N)=O)C(=O)N[C@@H](CCSC)C(=O)NCC(=O)NCC(=O)O)NC(=O)[C@H](CCC(N)=O)NC(=O)[C@H](CC(C)C)NC(=O)CNC(=O)CNC(=O)[C@@H]2CCCN2C(=O)[C@H](CC(=O)O)NC(=O)[C@H](CC(C)C)NC(=O)[C@H]([C@@H](C)O)NC1=O` [SEQ ID NO: 430, I P W C T L D P G G L Q C A W H K Q M], the IC50 was 682 nM.

For the origin of these results see US11746139B2, “IL-7Rαγc binding compounds” (MEDIKINE, INC., priority 2020, dated 2023).
